# Experimental data from patent publication US20060116403A1, “Therapeutic target and uses thereof” (priority 2002, published 2006).
# Where two headings read alike, the source gives them in different places.
# Key:
# [1] = system: human vascular smooth muscle cells; test: Xyloside-initiated GAG chain synthesis and size; type: cell-based; details: xyloside 0.5 mM; for effect on increase in size of GAG chains on xyloside, PDGF: PDGF treated cells
# Method: To study glycosaminoglycan (GAG) synthesis, cells were treated with exogenous xyloside which acts as an artificial and alternative substrate for the enzymes which normally catalyze the initiation of GAG chains on the protein core Nigro J et al (2002)) and Moses, J., Oldberg, A. & Fransson, L. A. Initiation of galactosaminoglycan biosynthesis. Separate galactosylation and dephosphorylation pathways for phosphoxylosylated decorin protein and exogenous xyloside. Eur J Biochem 260, 879-84 (1999)) generating free xyloside-initiated GAG chains. β-D-Xylopyranoside (xyloside) (0.5 mM) was prepared in DMEM with FBS (0.1%) and DMSO (0.1%). […] Cells were metabolically labeled with [^35S]-sulfate (50 μCi/well) for 24 hours.
# SDS-PAGE gels were prepared following the procedure of Laemelli (Laemmli, U.K. Cleavage of structural proteins during the assembly of the head of bacteriophage T4. Nature 227, 680-5 (1970)) on 4-13% linear gradient separating gels for intact proteoglycans and 4-20% separating gels for cleaved chains and xyloside-initiated GAGs, with a 3.5% stacking gel. For the estimation of apparent relative masses (MrS) ^14C high molecular weight standards (GIBCO BRL, Grand Island, U.S.A) were run in separate lanes.
# Cell cultures supplemented with xyloside synthesize the normal family of proteoglycans but also free GAG chains which are synthesized on the xyloside acting as a “false acceptor” for GAG initiation. […] The analysis of the production of the xyloside-initiated GAG chains therefore represents an independent assay of the activity of the GAG elongation process which normally determine the length of GAGs on proteoglycans. […]. GAG chains produced on xyloside are considerably smaller than free GAG chains synthesized on and released from proteoglycans (compare FIG. 2 right panel with FIG. 3 lower panel). The band at the bottom of the SDS-PAGE is the GAG chains initiated on xyloside. Genistein and daidzein have no effect on the size of the GAGs either under basal or PDGF stimulated conditions. […].
# [2] = system: human vascular smooth muscle cells; test: Size of proteoglycans and cleaved GAG chains by SDS-PAGE; type: cell-based; details: for effect on elongation of GAG chains stimulated by PDGF: PDGF treated cells; for effect on size of GAG chains released from proteoglycans, basal: basal (untreated cells); for effect on proteoglycan size (SDS-PAGE): basal and PDGF treated cells, imatinib 1 μM, genistein/daidzein 100 μM
# Method: DEAE-Sephacel columns were prepared as previously described 19 and were washed with low salt buffer containing 8 M urea, 0.25 M NaCl, 0.02 M disodium EDTA and 0.5% Triton X-100. The media of 3 identical treatments was pooled and applied to the column. The columns were washed with low salt buffer to remove non-proteoglycan associated radioactivity. Fractions were collected with high salt buffer containing 8 M urea, 3 M NaCl, 0.02 M disodium EDTA and 0.5% Triton X-100.
# Samples were prepared for SDS-PAGE by set counts so that the amount of radioactivity applied to the gel was the same for each treatment.
# Proteoglycans eluted from DEAE columns and precipitated once with ethanol/potassium acetate solution were treated with sodium borohydride (1 M) in NaOH (50 mM) for 4 h at 45° C. to release the GAG chains. The free GAG chains were precipitated with the ethanol/potassium acetate solution and analyzed for size by SDS-PAGE.
# For the estimation of apparent relative masses (MrS) ^14C high molecular weight standards (GIBCO BRL, Grand Island, U.S.A) were run in separate lanes.
# The labeled proteoglycans, cleaved chains, xyloside-initiated GAGs and standard proteins were exposed (3 days) to a Fujifilm imaging plate (Fuji Photo Film Co., Japan) and the imaging plate scanned by the Bio-imaging analyzer BAS-1000 MacBas (Fuji Photo Film Co., Japan).
# cAbl kinase = cAbl kinase (Homo sapiens, UniProt P00519); test: Direct assay of cAbl kinase activity; type: biochemical
# Sequence of cAbl kinase (P00519 whole entry): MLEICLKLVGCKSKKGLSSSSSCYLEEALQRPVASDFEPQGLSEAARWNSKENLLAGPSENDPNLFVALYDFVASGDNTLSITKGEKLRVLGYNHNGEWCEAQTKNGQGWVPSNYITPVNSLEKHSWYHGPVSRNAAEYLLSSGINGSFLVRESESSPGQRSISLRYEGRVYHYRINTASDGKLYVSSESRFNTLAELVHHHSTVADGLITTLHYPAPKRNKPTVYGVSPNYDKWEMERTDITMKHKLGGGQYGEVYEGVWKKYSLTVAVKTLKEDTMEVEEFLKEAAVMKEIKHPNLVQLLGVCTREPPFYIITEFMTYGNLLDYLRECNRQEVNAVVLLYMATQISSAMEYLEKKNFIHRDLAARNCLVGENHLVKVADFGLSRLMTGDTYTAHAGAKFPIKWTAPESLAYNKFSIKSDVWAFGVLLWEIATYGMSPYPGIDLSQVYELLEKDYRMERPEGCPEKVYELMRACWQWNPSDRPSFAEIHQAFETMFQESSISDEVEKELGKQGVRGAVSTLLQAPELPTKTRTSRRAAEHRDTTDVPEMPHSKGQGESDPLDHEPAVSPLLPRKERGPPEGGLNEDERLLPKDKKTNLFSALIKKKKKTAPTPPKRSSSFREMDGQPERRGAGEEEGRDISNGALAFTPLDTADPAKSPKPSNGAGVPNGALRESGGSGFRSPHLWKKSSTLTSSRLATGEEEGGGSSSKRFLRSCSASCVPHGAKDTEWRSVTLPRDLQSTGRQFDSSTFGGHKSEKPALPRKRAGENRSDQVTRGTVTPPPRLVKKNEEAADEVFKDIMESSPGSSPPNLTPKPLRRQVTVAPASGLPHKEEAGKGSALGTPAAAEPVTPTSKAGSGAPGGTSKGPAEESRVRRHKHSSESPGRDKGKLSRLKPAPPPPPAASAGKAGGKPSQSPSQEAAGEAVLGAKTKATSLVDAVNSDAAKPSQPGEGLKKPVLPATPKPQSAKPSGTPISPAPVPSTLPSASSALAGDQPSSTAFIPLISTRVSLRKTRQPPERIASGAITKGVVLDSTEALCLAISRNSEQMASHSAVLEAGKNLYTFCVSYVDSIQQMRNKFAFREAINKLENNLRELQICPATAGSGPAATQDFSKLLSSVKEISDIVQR
# Method: The direct cAbl kinase inhibitory activity of several compounds was evaluated.
# [3] = system: human vascular smooth muscle cells; test: Proteoglycan core protein synthesis (35S-methionine/cysteine, CPC precipitation); type: cell-based
# Method: (§1) The culture media were collected and each plate rinsed with Dulbecco's PBS (0.25 ml). Aliquots (50 μl) of the media sample were spotted in duplicate on 30×15 mm rectangles of Whatman® 3M chromatography paper (Aldrich, Milwaukee, U.S.A.). The paper was washed five times in a solution containing cetylpyridinium chloride (CPC, 1% w/v) and NaCl (50 mM). Following air drying at room temperature, the paper from each sample was placed in liquid scintillation fluid (Packard, Groningen, The Netherlands) and radioactivity counted in a Beckman Coulter liquid scintillation analyzer (Fullerton, U.S.A). Counts from cells labeled with [^35S]-sulfate and Tran^35SLabel represented total sulfated GAGs and total core protein respectively.
# Effects on core protein biosynthesis can be evaluated by metabolically labeling the cells with labeled amino acids (^35S-methionine/cysteine) and using an isolation technique “CPC precipitation” which is specific for isolating proteoglycans. Thus, cells were treated identically to the above experiments but labeled with ^35S-methionine/cysteine. […]. Core protein biosynthesis was stimulated by PDGF (FIG. 5; […].
# [4] = system: human vascular smooth muscle cells (internal mammary artery); test: 35S-sulfate incorporation into total secreted proteoglycans (CPC precipitation); type: cell-based; details: for inhibition of PDGF-stimulated component of proteoglycan production: imatinib 1 μM, genistein 100 μM
# Method: The Human Ethics Committee of the Alfred Hospital and Baker Heart Research Institute approved the acquisition of tissue.
# Cells were metabolically labeled with [^35S]-sulfate ([…]) for the final 24 h.
# as §1
# [5] = system: vascular smooth muscle cells; details: cited from earlier work
# human LDL [6] = test: LDL affinity chromatography of radiolabeled proteoglycans; type: cell-based; details: for effect on increased LDL binding of proteoglycans from PDGF treated cells: PDGF 50 ng/ml, imatinib 1 μM, genistein 100 μM
# Method: Human blood samples were obtained from healthy subjects. LDL (d=1.019−1.063 g/ml) was purified from blood by sequential density gradient ultracentrifugation as described by Heinecke, J. W., Baker, L., Rosen, H. & Chait, A. Superoxide-mediated modification of low density lipoprotein by arterial smooth muscle cells. J Clin Invest 77, 757-61 (1986). The interaction of total pooled intact proteoglycan preparations with native human LDL was assessed using LDL affinity chromatography, providing a measure of binding capacity. […] Sepharose was prepared in the presence of excess heparin to protect the GAG binding sites. The columns were washed with HEPES buffer above and then with 1M NaCl to remove heparin. Each sample (80,000 cpm) was applied to a separate column. The columns were washed extensively with low salt buffer then eluted (5×0.5 ml) with 1M NaCl to elute bound proteoglycans. Finally the columns were stripped with high salt, high urea buffer. The aggregate radioactivity retained by the LDL column after extensive washing and eluted with 1M NaCl was determined as the binding capacity for the column.
# We observed a 36% increase in the binding capacity of proteoglycans in PDGF treated cells compared to untreated cells (FIG. 5).
# K562 cells = test: Inhibition of K562 cell proliferation; type: cell-based
# Text: K562 cells are Philadelphia chromosome tumour cells in which constitutively active cAbl (but possibly other pathways) drive the cell proliferation. […] These cells provide an assay to discriminate inhibition of tyrosine kinases in a whole cell assay.
# human LDL [7] = test: Gel Mobility Shift Assay of core protein labelled proteoglycans binding to human LDL
# Method: A new approach to these studies is now used in which the proteoglycan core proteins are metabolically radio-labelled and used to study the binding of human LDL. Cells are incubated with Translabel® (ICN Biochemicals) (^35S-methioinine and cysteine amino acids) and the amino acids are incorporated into the core proteins.
# Core protein labelled proteoglycans were isolated by DEAE sepharose ion exchange chromatography and then the binding to human LDL was studied in a Gel Mobility Shift Assay in which a set amount of radiolabeled proteoglycan is incubated with various amounts of LDL and then the bound and free proteoglycans are separated on a flat bed agarose gel.
# [8] = system: saphenous vein vascular smooth muscle cells; details: saphenous vein VSMC
# Method: Cultures of vascular smooth muscle cells from human saphenous veins samples obtained (with Ethics approval) from Cardiac Theatres at the Alfred Hospital were prepared.
# [9] = system: vascular smooth muscle cells; test: Sepharose 6B size exclusion chromatography of cleaved GAG chains; type: cell-based, human
# [10] = system: vascular smooth muscle cells; test: 35S-sulphate incorporation into proteoglycans, cAbl siRNA transfection compared with imatinib; type: cell-based, human; details: culture media
# Text: An independent method is available to examine this question by using molecular biology techniques to block the expression of the mRNA for cAbl and thus reduce the actual level of cAbl mRNA, protein and enzyme activity in the cell. A new technique of post-transcriptional gene silencing known as small inhibitory RNA (or siRNA) has recently been developed in which cells are transfected with an siRNA which leads to the breakdown and loss of the target mRNA in this case cAbl RNA. This is a highly specific technique which complements the pharmacological approach. […] Target sequences for siRNA have been identified from the scanning of the coding region of the human c-Abl gene. Four of these potential sites were selected and compared to a genome database to identify any sequence homology to other genes. Following identification of target sequences, sense and anti-sense siRNA oligonucleotide templates are constructed consisting of 21 nucleotides encoding the siRNA and 8 nucleotides complementary to a promoter primer. […] Both sense and anti-sense siRNA oligonucleotide templates were hybridised to a promoter primer. Double stranded siRNA transcription templates was created by extending the hybridised oligonucleotides using the Klenow fragment of DNA polymerase and RNA polymerase used to transcribe the sense and anti-sense siRNA templates which were then hybridised to dsRNA. […]
# [11] = Homo sapiens, 24 h, read-out: inhibition of basal proteoglycan production
Molecule,effect on combined production of proteoglycans and xyloside-initiated GAG chains [1],"effect on increase in size of GAG chains on xyloside, PDGF [1]","effect on size of GAG chains on xyloside, basal [1]",effect on elongation of GAG chains stimulated by PDGF [2],"effect on size of GAG chains released from proteoglycans, basal [2]",effect on proteoglycan size (SDS-PAGE) [2],inhibition of cAbl kinase activity (cAbl kinase),effect on PDGF-stimulated core protein biosynthesis [3],effect on basal proteoglycan core protein biosynthesis [3],effect on increased LDL binding of proteoglycans from PDGF treated cells (human LDL [6]),inhibition of PDGF-stimulated component of proteoglycan production ([4]; PDGF 50 ng/ml),further results
"O=c1c(-c2ccc(O)cc2)coc2cc(O)ccc12 [daidzein, 4′,7-dihydroxyisoflavone]",essentially identical,no effect,no effect,no effect,no effect,no effect,little activity,attenuated,considerably less active than genistein,,,"inhibition of basal proteoglycan production ([4]; basal, daidzein 100 μM): little inhibitory activity"
"O=c1c(-c2ccc(O)cc2)coc2cc(O)cc(O)c12 [genistein, 4′,5,7-trihydroxyisoflavone]",essentially identical,no effect,no effect,no effect,no effect,no effect,little activity,attenuated,reduced,does not prevent,less inhibitory than imatinib,"effect on total proteoglycan production ([5]; Primate VSMC in culture): inhibited; effect on basal expression of versican mRNA and core protein ([5]; basal): almost completely abolishes; effect on GAG length [5]: no effect; inhibition of K562 cell proliferation (K562 cells): little or no inhibitory activity; potency against cAbl relative to imatinib (times less potent) (cAbl kinase): 160 times; inhibition at 100 µM [4, 11]: 64%; concentration of maximal effect on proteoglycan production ([4]; dose response curves): 100 µM"
CO[C@H]1[C@@H](OC)C[C@H](C)[C@@H](OC)C2=CC(=O)C=C(NC(=O)/C(C)=C/C=C\[C@H](OC)[C@@H](OC(N)=O)/C(C)=C/[C@@H]1C)C2=O [herbimycin],,,,,,,little activity,,,,,effect on size of GAGs on proteoglycan (SDS-PAGE) ([2]; herbimycin): does not reduce; inhibition of cAbl kinase activity (cAbl kinase; listed as Herbimycin): no inhibitory activity; effect on radiosulfate incorporation into proteoglycans ([4]; herbimycin): does not inhibit
"Cc1ccc(NC(=O)c2ccc(CN3CCN(C)CC3)cc2)cc1Nc1nccc(-c2cccnc2)n1 [imatinib, 4-[(4-methyl-1-piperazinyl)methyl]-N-[4-methyl-3-[[4-(3-pyridinyl)-2-pyrimidinyl]amino-phenyl]benzamide methanesulfonate]",essentially identical,completely prevented,slightly reduced,,,,,attenuated,very small but not statistically significant inhibitory effect,completely abolished,totally blocked,"decrease in LDL binding affinity (human LDL [7]; basal): three fold; effect on GAG length (SDS-PAGE mobility) [8]: shortens; inhibition at 1 µM [4, 11]: 56%"
"PDGF: human recombinant platelet derived growth factor-BB, growth factor stimulus",,,,,,,,,,,,"Kav of cleaved GAG chains, PDGF stimulated [9]: 0.45; increase in LDL binding capacity of proteoglycans (human LDL [6]; PDGF treated cells compared to untreated cells): 36%; half-maximal saturation concentration of LDL, PDGF stimulated cells (human LDL [7]; PDGF stimulated): 25 µg/mL; increase of proteoglycan production ([4]; PDGF 50 ng/ml): approximately two-fold"
"siRNA (MB 61): siRNA directed to cAbl; anti-sense template 5′-AAGAAAAACTTCATCCACAGA-3′, sense template 5′-AATCTGTGGATGAAGTTTTTC-3′ (antisense AAGAAAAACTTCATCCACAGA; sense AATCTGTGGATGAAGTTTTTC; chemistry not given here; the letters are possibly those of the target site)",,,,,,,,,,,,"reduction in 35S-sulphate incorporation, PDGF cells ([10]; PDGF stimulated): 50%; inhibition of radiosulphate incorporation, control cells ([10]; control cells, 24 h): 30-40%"
